Test results reported in patent US12338243B2, “P2X7 modulators” (JANSSEN PHARMACEUTICA NV, priority 2014, dated 2025).
“And” between values parts separate entries of the source, which are not always exact repeats. Identical values can stand only once.

Key:
[1] = Biodistribution studies of radiotracer in healthy female Wistar rats; assay type: in vivo; conditions: for % ID blood: blood mass assumed 7% of body mass; for SUV blood / % ID carcass / % ID cerebellum / SUV cerebellum / % ID cerebrum / SUV cortex / % ID heart / SUV hippocampus / % ID intestines / % ID kidneys / % ID liver / % ID lungs / SUV rest of cerebrum / % ID spleen + pancreas / % ID stomach / SUV striatum / % ID urine / SUV whole cerebrum: mean ± SD, n = 3
Method: (§1) HPLC analysis was performed on a LaChrom Elite HPLC system (Hitachi, Armstadt, Germany) connected to a UV spectrometer set at 220 nm. For the analysis of radiolabeled compounds, the HPLC eluate, after passage through the UV detector, was led over a shielded 3-inch NaI(Tl) scintillation detector connected to a multichannel analyser (Gabi box, Raytest, Straubenhardt, Germany). The output signal was recorded and analysed using a GINA Star data acquisition system (Raytest, Straubenhardt, Germany). Radioactivity in samples of biodistribution studies, cell uptake experiments and radiometabolite analysis was quantified using an automated gamma counter equipped with a 3-inch NaI(Tl) well crystal coupled to a multichannel analyser (Wallac 2480 Wizard, Wallac, Turku, Finland). Results were corrected for background radiation, physical decay and counter dead time.
Animals were housed in individually ventilated cages in a thermoregulated (˜22° C.), humidity-controlled facility under a 12 h/12 h light/dark cycle with access to food and water ad libitum. All animal experiments were conducted according to the Belgian code of practice for the care and use of animals, after approval from the KU Leuven University Ethics Committee for Animals.
The biodistribution studies were performed in healthy female Wistar rats (body weight, 185-220 g) at 2, 30 and 60 min after tracer injection (n=3/time point). […] The animals were sacrificed by decapitation at the indicated time points. Blood and major organs were collected in tared tubes and weighed. The radioactivity in the dissected organs and blood was counted using an automated gamma counter. For calculation of total blood radioactivity, blood mass was assumed to be 7% of the body mass.

[2] = Rat plasma radiometabolite analysis; assay type: in vivo; conditions: 30 min after radiotracer injection, n=2
Method: as §1
Radiometabolites of [^11C]55 in plasma of normal female Wistar rats (n=2) were quantified at 30 min after tracer injection. […] The fraction of more lipophilic radiometabolites eluting after the intact tracer was negligible (<1.5%).

Structure (SMILES): C[C@H]1Cn2c(nnc2-c2cc(O[11CH3])ccn2)CN1C(=O)c1cccc(Cl)c1Cl [[^11C]55, (S)-(2,3-dichlorophenyl)(3-(4-[^11C]methoxypyridin-2-yl)-6-methyl-5,6-dihydro-[1,2,4]triazolo[4,3-a]pyrazin-7(8H)-yl)methanone]
- % ID blood ([1]; 2 min after tracer injection): 10.0 % ID and 10.0 ± 2.4 % ID
- SUV blood ([1]; 2 min after tracer injection): 1.42 ± 0.3
- % ID blood ([1]; 30 min after tracer injection): 5.2 ± 0.6 % ID
- SUV blood ([1]; 30 min after tracer injection): 0.74 ± 0.1
- % ID blood ([1]; 60 min after tracer injection): 5.3 % ID and 5.3 ± 0.6 % ID
- SUV blood ([1]; 60 min after tracer injection): 0.75 ± 0.1
- % ID carcass ([1]; 2 min after tracer injection): 35.1 ± 4.1 % ID
- % ID carcass ([1]; 30 min after tracer injection): 46.9 ± 0.5 % ID
- % ID carcass ([1]; 60 min after tracer injection): 43.2 ± 5.3 % ID
- % ID cerebellum ([1]; 2 min after tracer injection): 0.1 ± 0.0 % ID
- SUV cerebellum ([1]; 2 min after tracer injection): 1.02 ± 0.1
- % ID cerebellum ([1]; 30 min after tracer injection): 0.1 ± 0.0 % ID
- SUV cerebellum ([1]; 30 min after tracer injection): 0.53 ± 0.0
- % ID cerebellum ([1]; 60 min after tracer injection): 0.1 ± 0.0 % ID
- SUV cerebellum ([1]; 60 min after tracer injection): 0.59 ± 0.1
- % ID cerebrum ([1]; 2 min after tracer injection): 0.5 ± 0.0 % ID
- % ID cerebrum ([1]; 30 min after tracer injection): 0.3 ± 0.0 % ID
- % ID cerebrum ([1]; 60 min after tracer injection): 0.3 ± 0.1 % ID
- SUV cortex ([1]; 2 min after tracer injection): 0.80 ± 0.2
- SUV cortex ([1]; 30 min after tracer injection): 0.58 ± 0.1
- SUV cortex ([1]; 60 min after tracer injection): 0.65 ± 0.1
- % ID heart ([1]; 2 min after tracer injection): 1.3 ± 0.2 % ID
- % ID heart ([1]; 30 min after tracer injection): 0.4 ± 0.0 % ID
- % ID heart ([1]; 60 min after tracer injection): 0.4 ± 0.1 % ID
- SUV hippocampus ([1]; 2 min after tracer injection): 0.74 ± 0.0
- SUV hippocampus ([1]; 30 min after tracer injection): 0.43 ± 0.0
- SUV hippocampus ([1]; 60 min after tracer injection): 0.52 ± 0.1
- % ID intestines ([1]; 2 min after tracer injection): 14.0 ± 1.8 % ID
- % ID intestines ([1]; 30 min after tracer injection): 23.8 ± 1.1 % ID
- % ID intestines ([1]; 60 min after tracer injection): 26.7 ± 9.1 % ID
- % ID kidneys ([1]; 2 min after tracer injection): 4.5 ± 0.8 % ID
- % ID kidneys ([1]; 30 min after tracer injection): 1.9 ± 0.1 % ID
- % ID kidneys ([1]; 60 min after tracer injection): 1.8 ± 0.2 % ID
- injected dose retained in the liver and the intestines ([1]; liver and intestines, 60 min after tracer injection): 43.8%
- % ID liver ([1]; 2 min after tracer injection): 34.8 ± 2.1 % ID
- % ID liver ([1]; 30 min after tracer injection): 19.4 ± 0.5 % ID
- % ID liver ([1]; 60 min after tracer injection): 17.1 ± 0.3 % ID
- % ID lungs ([1]; 2 min after tracer injection): 2.1 ± 0.3 % ID
- % ID lungs ([1]; 30 min after tracer injection): 1.0 ± 0.1 % ID
- % ID lungs ([1]; 60 min after tracer injection): 1.1 ± 0.4 % ID
- SUV rest of cerebrum ([1]; 2 min after tracer injection): 0.86 ± 0.0
- SUV rest of cerebrum ([1]; 30 min after tracer injection): 0.46 ± 0.0
- SUV rest of cerebrum ([1]; 60 min after tracer injection): 0.53 ± 0.1
- % ID spleen + pancreas ([1]; 2 min after tracer injection): 1.4 ± 0.4 % ID
- % ID spleen + pancreas ([1]; 30 min after tracer injection): 0.6 ± 0.1 % ID
- % ID spleen + pancreas ([1]; 60 min after tracer injection): 0.6 ± 0.1 % ID
- % ID stomach ([1]; 2 min after tracer injection): 1.7 ± 0.3 % ID
- % ID stomach ([1]; 30 min after tracer injection): 2.1 ± 1.0 % ID
- % ID stomach ([1]; 60 min after tracer injection): 5.1 ± 3.4 % ID
- SUV striatum ([1]; 2 min after tracer injection): 0.78 ± 0.0
- SUV striatum ([1]; 30 min after tracer injection): 0.45 ± 0.0
- SUV striatum ([1]; 60 min after tracer injection): 0.50 ± 0.1
- total initial brain uptake ([1]; total brain, 2 min after injection): 0.6%
- total brain uptake ([1]; total brain, 60 min after tracer injection): 0.4%
- % ID in urine and kidneys ([1]; urine and kidneys, 60 min after injection): 2.9 % ID
- % ID urine ([1]; 2 min after tracer injection): 0.1 ± 0.1 % ID
- % ID urine ([1]; 30 min after tracer injection): 0.9 ± 0.0 % ID
- % ID urine ([1]; 60 min after tracer injection): 1.1 ± 0.5 % ID
- SUV whole cerebrum ([1]; 2 min after tracer injection): 0.83 ± 0.0
- SUV whole cerebrum ([1]; 30 min after tracer injection): 0.46 ± 0.0
- SUV whole cerebrum ([1]; 60 min after tracer injection): 0.54 ± 0.1
- recovered radioactivity in the plasma in the form of intact tracer [2]: 70±6%
